Data reported in patent US7250442B2, “Dihydroindol-2-one derivatives as steroid hormone nuclear receptor modulators” (Eli Lilly and Company, priority 2003, dated 2007).

Each compound was assayed against T1, human MR (Homo sapiens, UniProt P08235) (assay: Mineralocorticoid Receptor Binding Assay ([3H]-aldosterone displacement)). Details: full length human MR expressed in Sf9 cells, 0.5 nM [3H]-aldosterone.
T1 construct: The full length human MR gene is cloned from a human kidney or human brain cDNA library; made in house; host or cells: Sf9 insect cells (baculovirus, pAcHLT transfer vector)
T1 sequence (P08235 1-984): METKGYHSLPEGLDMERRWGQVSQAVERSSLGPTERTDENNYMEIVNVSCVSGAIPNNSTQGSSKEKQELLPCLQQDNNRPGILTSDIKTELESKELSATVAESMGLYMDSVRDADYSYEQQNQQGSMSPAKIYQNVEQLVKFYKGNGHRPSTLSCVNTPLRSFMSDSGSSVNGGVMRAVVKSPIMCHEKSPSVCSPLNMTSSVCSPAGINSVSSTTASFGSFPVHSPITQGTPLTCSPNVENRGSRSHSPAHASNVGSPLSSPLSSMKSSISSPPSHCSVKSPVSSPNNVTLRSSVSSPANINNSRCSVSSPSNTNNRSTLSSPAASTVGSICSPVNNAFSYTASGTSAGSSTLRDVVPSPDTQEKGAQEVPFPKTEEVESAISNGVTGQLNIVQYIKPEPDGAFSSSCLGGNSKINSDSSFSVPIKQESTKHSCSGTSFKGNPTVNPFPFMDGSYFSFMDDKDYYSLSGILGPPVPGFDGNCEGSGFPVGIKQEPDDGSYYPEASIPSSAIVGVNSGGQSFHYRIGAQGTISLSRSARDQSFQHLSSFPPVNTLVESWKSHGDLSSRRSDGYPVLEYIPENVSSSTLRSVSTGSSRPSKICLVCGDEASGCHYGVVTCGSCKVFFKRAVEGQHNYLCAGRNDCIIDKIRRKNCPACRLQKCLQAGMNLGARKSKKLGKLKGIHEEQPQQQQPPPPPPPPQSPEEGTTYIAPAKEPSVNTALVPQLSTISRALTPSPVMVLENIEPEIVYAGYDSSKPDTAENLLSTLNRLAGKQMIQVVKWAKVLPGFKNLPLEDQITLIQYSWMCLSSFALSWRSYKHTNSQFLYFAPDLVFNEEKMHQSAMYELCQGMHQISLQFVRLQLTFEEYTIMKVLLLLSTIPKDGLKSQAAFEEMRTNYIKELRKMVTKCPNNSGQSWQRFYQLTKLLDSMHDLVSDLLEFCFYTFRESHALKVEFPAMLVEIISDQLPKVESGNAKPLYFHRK
Method in brief: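 Full-length human MR expressed in Sf9 cells; lysate (20-25 μg protein) incubated with 0.5 nM [3H]-aldosterone and test compound in molybdate/Tris/phosphate/glycerol buffer pH 7.5, 16 h at 4 °C. Bound ligand measured by filtration and scintillation counting; IC50 converted to Ki via Cheng-Prusoff.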

Row | Compound | Ki [nM]
1 | Cc1cc(C2(c3cc(C)c(O)c(C)c3)C(=O)N(Cc3ccc(F)cc3)c3ccccc32)cc(C)c1O [Example 2] | ≤ 500
2 | Cc1cc(C2(c3cc(C)c(O)c(C)c3)C(=O)N(Cc3ccc(C(C)(C)C)cc3)c3ccccc32)cc(C)c1O [Example 7, 1-(4-tert-Butyl-benzyl)-3,3-bis-(4-hydroxy-3,5-dimethyl-phenyl)-1,3-dihydro-indol-2-one] | ≤ 500
3 | Cc1cc(C2(c3cc(C)c(O)c(C)c3)C(=O)N(Cc3cccc4ccccc34)c3ccccc32)cc(C)c1O [Example 10, 3,3-Bis-(4-hydroxy-3,5-dimethyl-phenyl)-1-naphthalen-1-ylmethyl-1,3-dihydro-indol-2-one] | ≤ 500
4 | COc1ccc2c(c1)C(c1cc(C)c(O)c(C)c1)(c1cc(C)c(O)c(C)c1)C(=O)N2Cc1ccccc1 [Example 16, 1-Benzyl-3,3-bis-(4-hydroxy-3,5-dimethyl-phenyl)-5-methoxy-1,3-dihydro-indol-2-one] | ≤ 500
5 | Cc1cc(C2(c3ccc(O)cc3)C(=O)N(Cc3ccccc3)c3ccccc32)cc(C)c1O (stereo not drawn) [Example 29, 1-Benzyl-3-(4-hydroxy-3,5-dimethyl-phenyl)-3-(4-hydroxy-phenyl)-1,3-dihydro-indol-2-one] | ≤ 500
6 | COc1ccccc1C(=O)CN1C(=O)C(c2cc(C)c(O)c(C)c2)(c2cc(C)c(O)c(C)c2)c2ccccc21 [Example 44, 3,3-Bis-(4-hydroxy-3,5-dimethyl-phenyl)-1-[2-(2-methoxy-phenyl)-2-oxo-ethyl]-1,3-dihydro-indol-2-one] | ≤ 500
7 | COc1cccc(C(=O)CN2C(=O)C(c3cc(C)c(O)c(C)c3)(c3cc(C)c(O)c(C)c3)c3ccccc32)c1 [Example 45, 3,3-Bis-(4-hydroxy-3,5-dimethyl-phenyl)-1-[2-(3-methoxy-phenyl)-2-oxo-ethyl]-1,3-dihydro-indol-2-one] | ≤ 500
8 | COc1ccc(C(=O)CN2C(=O)C(c3cc(C)c(O)c(C)c3)(c3cc(C)c(O)c(C)c3)c3ccccc32)cc1 [Example 46, 3,3-Bis-(4-hydroxy-3,5-dimethyl-phenyl)-1-[2-(4-methoxy-phenyl)-2-oxo-ethyl]-1,3-dihydro-indol-2-one] | ≤ 500
9 | COc1ccc(OC)c(C(=O)CN2C(=O)C(c3cc(C)c(O)c(C)c3)(c3cc(C)c(O)c(C)c3)c3ccccc32)c1 [Example 49, 1-[2-(2,5-Dimethoxy-phenyl)-2-oxo-ethyl]-3,3-bis-(4-hydroxy-3,5-dimethyl-phenyl)-1,3-dihydro-indol-2-one] | ≤ 500
10 | Cc1cc(C2(c3cc(C)c(O)c(C)c3)C(=O)N(Cc3ccccc3C#N)c3ccccc32)cc(C)c1O [Example 51, 2-[3,3-Bis-(4-hydroxy-3,5-dimethyl-phenyl)-2-oxo-2,3-dihydro-indol-1-ylmethyl]-benzonitrile] | ≤ 500
11 | Cc1cc(C2(c3cc(C)c(O)c(C)c3)C(=O)N(Cc3ccc(Cl)c(Cl)c3)c3ccccc32)cc(C)c1O [Example 52, 1-(3,4-Dichloro-benzyl)-3,3-bis-(4-hydroxy-3,5-dimethyl-phenyl)-1,3-dihydro-indol-2-one] | ≤ 500
12 | COC(=O)c1cccc(CN2C(=O)C(c3cc(C)c(O)c(C)c3)(c3cc(C)c(O)c(C)c3)c3ccccc32)c1 [Example 55, 3-[3,3-Bis-(4-hydroxy-3,5-dimethyl-phenyl)-2-oxo-2,3-dihydro-indol-1-ylmethyl]-benzoic acid methyl ester] | ≤ 500
13 | Cc1cc(C2(c3cc(C)c(O)c(C)c3)C(=O)N(Cc3ccc(C(F)(F)F)cc3)c3ccccc32)cc(C)c1O [Example 57, 3,3-Bis-(4-hydroxy-3,5-dimethyl-phenyl)-1-(4-trifluoromethyl-benzyl)-1,3-dihydro-indol-2-one] | ≤ 500
14 | Cc1cc(C2(c3cc(C)c(O)c(C)c3)C(=O)N(Cc3cccc(Cl)c3)c3ccccc32)cc(C)c1O [Example 60, 1-(3-Chloro-benzyl)-3,3-bis-(4-hydroxy-3,5-dimethyl-phenyl)-1,3-dihydro-indol-2-one] | ≤ 500
15 | Cc1cc(C2(c3cc(C)c(O)c(C)c3)C(=O)N(Cc3cccc(C(F)(F)F)c3)c3ccccc32)cc(C)c1O [Example 61, 3,3-Bis-(4-hydroxy-3,5-dimethyl-phenyl)-1-(3-trifluoromethyl-benzyl)-1,3-dihydro-indol-2-one] | ≤ 500
16 | Cc1cc(C2(c3cc(C)c(O)c(C)c3)C(=O)N(Cc3ccc(Br)cc3F)c3ccccc32)cc(C)c1O [Example 81, 1-(4-Bromo-2-fluoro-benzyl)-3,3-bis-(4-hydroxy-3,5-dimethyl-phenyl)-1,3-dihydro-indol-2-one] | ≤ 500
17 | Cc1cc(C2(c3cc(C)c(O)c(C)c3)C(=O)N(Cc3ccc(O)cc3)c3ccccc32)cc(C)c1O [Example 88, 1-(4-Hydroxy-benzyl)-3,3-bis-(4-hydroxy-3,5-dimethyl-phenyl)-1,3-dihydro-indol-2-one] | ≤ 500
18 | Cc1nc(CN2C(=O)C(c3cc(C)c(O)c(C)c3)(c3cc(C)c(O)c(C)c3)c3ccccc32)cs1 [Example 89, 3,3-Bis-(4-hydroxy-3,5-dimethyl-phenyl)-1-(2-methyl-thiazol-4-ylmethyl)-1,3-dihydro-indol-2-one] | ≤ 500
19 | Cc1ccc2c(c1)C(c1cc(C)c(O)c(C)c1)(c1cc(C)c(O)c(C)c1)C(=O)N2Cc1csc(C)n1 [Example 93, 3,3-Bis-(4-hydroxy-3,5-dimethyl-phenyl)-5-methyl-1-(2-methyl-thiazol-4-ylmethyl)-1,3-dihydro-indol-2-one] | ≤ 500

Second part, the compound after the results:

Row | Ki [nM] | Compound
20 | ≤ 500 | Cc1cc(C2(c3cc(C)c(O)c(C)c3)C(=O)N(Cc3ccccn3)c3ccccc32)cc(C)c1O [Example 100, 3,3-Bis-(4-hydroxy-3,5-dimethyl-phenyl)-1-pyridin-2-ylmethyl-1,3-dihydro-indol-2-one]
21 | ≤ 500 | Cc1cc(C2(c3cc(C)c(O)c(C)c3)C(=O)N(CC3CC3)c3ccccc32)cc(C)c1O [Example 105, 1-Cyclopropylmethyl-3,3-bis-(4-hydroxy-3,5-dimethyl-phenyl)-1,3-dihydro-indol-2-one]
22 | ≤ 500 | Cc1cc(C2(c3cc(C)c(O)c(C)c3)C(=O)N(Cc3c(C)cccc3C)c3ccccc32)cc(C)c1O [Example 107, 1-(2,6-Dimethyl-benzyl)-3,3-bis-(4-hydroxy-3,5-dimethyl-phenyl)-1,3-dihydro-indol-2-one]
23 | ≤ 500 | Cc1cc(C2(c3cc(C)c(O)c(C)c3)C(=O)N(Cc3cc(C(F)(F)F)ccc3F)c3ccccc32)cc(C)c1O [Example 112, 1-(2-Fluoro-5-trifluoromethyl-benzyl)-3,3-bis-(4-hydroxy-3,5-dimethyl-phenyl)-1,3-dihydro-indol-2-one]
24 | ≤ 500 | Cc1cc(C2(c3cc(C)c(O)c(C)c3)C(=O)N(C3CCCC3)c3ccccc32)cc(C)c1O [Example 114, 1-Cyclopentyl-3,3-bis-(4-hydroxy-3,5-dimethyl-phenyl)-1,3-dihydro-indol-2-one]
25 | ≤ 500 | Cc1cc(C2(c3cc(C)c(O)c(C)c3)C(=O)N(Cc3ccc(N)cc3)c3ccccc32)cc(C)c1O [Example 117, 11-(4-Amino-benzyl)-3,3-bis-(4-hydroxy-3,5-dimethyl-phenyl)-1,3-dihydro-indol-2-one]
26 | ≤ 500 | Cc1cc(C2(c3cc(C)c(O)c(C)c3)C(=O)N(Cc3cccc(N)c3)c3ccccc32)cc(C)c1O [Example 118, 1-(3-Amino-benzyl)-3,3-bis-(4-hydroxy-3,5-dimethyl-phenyl)-1,3-dihydro-indol-2-one]
27 | ≤ 500 | Cc1cc(C2(c3cc(C)c(O)c(C)c3)C(=O)N(CCc3scnc3C)c3ccccc32)cc(C)c1O [Example 121, 3,3-Bis-(4-hydroxy-3,5-dimethyl-phenyl)-1-[2-(4-methyl-thiazol-5-yl)-ethyl]-1,3-dihydro-indol-2-one]
28 | ≤ 500 | COc1ccc(N2C(=O)C(c3cc(C)c(O)c(C)c3)(c3cc(C)c(O)c(C)c3)c3ccccc32)cc1 [Example 128, 3,3-Bis-(4-hydroxy-3,5-dimethyl-phenyl)-1-(4-methoxy-phenyl)-1,3-dihydro-indol-2-one]
29 | ≤ 500 | COc1cccc(N2C(=O)C(c3cc(C)c(O)c(C)c3)(c3cc(C)c(O)c(C)c3)c3ccccc32)c1 [Example 134, 3,3-Bis-(4-hydroxy-3,5-dimethyl-phenyl)-1-(3-methoxy-phenyl)-1,3-dihydro-indol-2-one]
30 | ≤ 500 | Cc1cc(C2(c3cc(C)c(O)c(C)c3)C(=O)N(c3cccnc3)c3ccccc32)cc(C)c1O [Example 135, 3,3-Bis-(4-hydroxy-3,5-dimethyl-phenyl)-1-pyridin-3-yl-1,3-dihydro-indol-2-one]
